Experiment [1] has as its target T1, human recombinant trypsin (rh-trypsin) (Homo sapiens, UniProt P07477).
T1 construct: purchased Wako Pure Chemical Industries, Ltd. 206-17171
The experiment in a line: Trypsin inhibitory activity, human recombinant trypsin, BZiPAR fluorescent substrate. The settings on record: 30 min at room temperature, read-out: r-h Trypsin inhibitory activity (IC50). The experiment is classed as biochemical. Here is the method:
(§1) 1. Confirmation of Trypsin Inhibitory Activity in Humans and Mice In the experiment, human recombinant trypsin (rh-trypsin; manufactured by Wako Pure Chemical Industries, Ltd.), cat. #206-17171) and mouse trypsin (m-trypsin; purified from the mouse small intestine contents by the present inventors) were used. The method for purifying m-trypsin from the contents of the mouse small intestine is shown below. The compound was dissolved in dimethyl sulfoxide (DMSO), and diluted to an arbitrary concentration (A). A was 100-fold diluted with a buffer (0.1 M Tris (pH 8.0), 0.15 M NaCl, 10 mM CaCl2, 0.05% Brij35) (B). The rh-trypsin was diluted with a buffer to 0.088 μg/mL, and for the m-trypsin, the purified fraction liquid was 50-fold diluted with the buffer (C). […] A BZiPAR solution (Rhodamine Reference Substrate) which is substrate for the trypsin enzyme was diluted with the buffer to […] (D). 5 μL of B, 5 μL of C, and 10 μL of D were added to a 384-well plate, and incubated at room temperature for 30 minutes. Fluorescent signals were detected at a maximum excitement (Ex)/fluorescent wavelength (Em)=497 nm/520 nm using a Tecan Safire Fluorometer. […] Based on the obtained inhibitory rates, the trypsin inhibitory activities (IC50 values, nM) were calculated from the non-linear regression.

Experiment [2] relates to T2, mouse trypsin (m-trypsin).
T2 construct: mouse trypsin (m-trypsin)
The experiment is described as follows: Trypsin inhibitory activity, mouse trypsin purified from small intestine contents, BZiPAR fluorescent substrate. Type of experiment: biochemical. The conditions noted are these: 30 min at room temperature.
From the text: 1. Confirmation of Trypsin Inhibitory Activity in Humans and Mice
In the experiment, human recombinant trypsin (rh-trypsin; manufactured by Wako Pure Chemical Industries, Ltd.), cat. #206-17171) and mouse trypsin (m-trypsin; purified from the mouse small intestine contents by the present inventors) were used. The method for purifying m-trypsin from the contents of the mouse small intestine is shown below.
The small intestine contents and the gastrointestinal tract obtained from 10 mice were homogenized in phosphate buffer saline (PBS) using Polytron, and subjected to centrifugation several times at 15,000×g for 10 minutes. The supernatant was mixed at 4° C. for 16 hours with a Benzamidine Sepharose 4 Fast Flow Resin (GE Healthcare: #17-5123-10). After washing the resin with PBS, m-trypsin was eluted with a glycine buffer (pH 3.0) to carry out purification. It was confirmed by Western blot analysis that the obtained purified fraction was recognized as an Anti-mouse Trypsin Antibody (Santa Cruz Biotechnology, Inc.: sc-67388). The method for measuring the trypsin inhibiting activity is shown below.
as §1, with “The” for “1. Confirmation of Trypsin Inhibitory Activity in Humans and Mice In the experiment, human recombinant trypsin (rh-trypsin; manufactured by Wako Pure Chemical Industries, Ltd.), cat. #206-17171) and mouse trypsin (m-trypsin; purified from the mouse small intestine contents by the present inventors) were used. The method for purifying m-trypsin from the contents of the mouse small intestine is shown below. The”

For a further experiment, the system named is ICR mice. The experiment in a line: Test of increase in fecal protein concentration using mice. Type of experiment: in vivo, mouse. The settings on record: Mus musculus, po, 9 h, 5 mg/kg oral, male ICR mice, feces collected 3 to 9 hours after feeding started, control group = 1; read-out: Fecal protein, Folds (vs. control). Here is the method: 2. Test of Increase in Fecal Protein Concentration Using Mice
For the experiment, 6-week old male ICR mice were used. The experiment was carried out in five mice per group. After fasting the mice for 15 hours, the control group was forcibly orally administered with a 0.5% methyl cellulose (MC) solution, and the test drug group was forcibly orally administered (5 mg/kg) with a solution or suspension obtained by dissolving or suspending the compound in the 0.5% MC solution. The fasting was stopped immediately thereafter, free feeding (CE-2) was started, and then the feces were collected from after 3 hours to after 9 hours, and weighed. All of the obtained feces were suspended in 6 mL of distilled water, and centrifuged at 1,940×g for 10 minutes. The protein concentration in the obtained supernatant was measured by a Bradford method, and the amount of the protein in 1 g of feces was calculated by dividing the protein concentration in the feces by the total weight of feces. Further, the efficacy was investigated from the ratio to the control group. For the compounds that were evaluated multiple times, the average values were calculated.
The results of the activities with an increase in Fecal Protein, assuming a value for the control group as 1, are shown in Table 2.

For the compound `N=C(N)Nc1ccc(C(=O)Oc2ccc3c(C(=O)N(CC(=O)O)Cc4ccc5sc(C(=O)O)cc5c4)cccc3c2)cc1` [Example 34], the IC50 in experiment [1] was 0.21 nM; in experiment [2], 0.17 nM. Also, in the experiment on ICR mice, the response vs control in vivo at 5 mg/kg was 207%.

Take `N=C(N)Nc1ccc(C(=O)Oc2ccc3cc(C(=O)N(CC(=O)O)[C@@H](Cc4ccccc4)C(=O)O)ccc3c2)cc1` [Example 39]: the 50% inhibitory concentration (IC50) is 0.18 nM in experiment [1] and 0.13 nM in experiment [2]. Moreover, the response vs control in vivo at 5 mg/kg in the experiment with ICR mice was 108%.

As to `N=C(N)Nc1ccc(C(=O)Oc2ccc3c(C(=O)N(CC(=O)O)Cc4ccc(CC(=O)O)cc4)cccc3c2)cc1` [Example 17], the half-inhibitory concentration (IC50) in experiment [1] was determined as 0.22 nM; in experiment [2], 0.27 nM. In addition, the response vs control in vivo at 5 mg/kg in the experiment with ICR mice turned out to be 270%.

As for `N=C(N)Nc1ccc(C(=O)Oc2ccc3cc(C(=O)N(CCC(=O)O)Cc4csc(C(=O)O)c4)ccc3c2)cc1` [Example 56], the half-inhibitory concentration (IC50) in experiment [1] came to 0.35 nM; in experiment [2], 0.59 nM. In the experiment on ICR mice, the response vs control in vivo at 5 mg/kg was determined as 145%.

`N=C(N)Nc1ccc(C(=O)Oc2ccc3cc(C(=O)N(CC(=O)O)Cc4ccc5sc(C(=O)O)cc5c4)ccc3c2)cc1` [Example 33]: the concentration for half-maximal inhibition (IC50) in experiment [1] turned out to be 0.18 nM; in experiment [2], 0.16 nM. For the same compound, in the experiment on ICR mice, the response vs control in vivo at 5 mg/kg worked out at 139%.

Regarding `N=C(N)Nc1ccc(C(=O)Oc2ccc3c(c2)CCCC3CC(=O)N(CCC(=O)O)Cc2csc(C(=O)O)c2)cc1` (stereo not drawn) [Example 55], the 50% inhibitory concentration (IC50) in experiment [1] was 0.35 nM; in experiment [2], 0.47 nM. Further, the response vs control in vivo at 5 mg/kg in the experiment with ICR mice is 230%.

For the compound `N=C(N)Nc1ccc(C(=O)Oc2ccc3c(c2)CCC3CC(=O)N(CC(=O)O)Cc2csc(C(=O)O)c2)cc1` (stereo not drawn) [Example 49], the IC50 amounted to 0.37 nM in experiment [1] and 0.45 nM in experiment [2]. Further, in the experiment on ICR mice, the response vs control in vivo at 5 mg/kg is 207%.

`N=C(N)Nc1ccc(C(=O)Oc2ccc3c(c2)CCCC3CC(=O)N(Cc2ccccc2)CC(CC(=O)O)CC(=O)O)cc1` (stereo not drawn) [Example 44]: the IC50 in experiment [1] and in experiment [2] was 0.2 nM throughout. The response vs control in vivo at 5 mg/kg in the experiment with ICR mice stood at 172%.

`N=C(N)Nc1ccc(C(=O)Oc2ccc3c(C(=O)N(CC(=O)O)Cc4csc(C(=O)O)c4)cccc3c2)cc1` [Example 57]: the IC50 in experiment [1] stood at 0.19 nM; in experiment [2], 0.38 nM. Besides, the response vs control in vivo at 5 mg/kg with ICR mice was 225%.

For `N=C(N)Nc1ccc(C(=O)Oc2ccc3c(c2)CCC3CC(=O)N(CCC(=O)O)Cc2csc(C(=O)O)c2)cc1` (stereo not drawn) [Example 50], the IC50 was 0.28 nM in experiment [1] and 0.43 nM in experiment [2]. In the experiment on ICR mice, the response vs control in vivo at 5 mg/kg was 156%.

As for `N=C(N)Nc1ccc(C(=O)Oc2ccc3c(c2)CCC3CC(=O)N(CC(=O)O)[C@@H](Cc2ccccc2)C(=O)O)cc1` (stereo partly drawn) [Example 46], the IC50 in experiment [1] was determined as 0.25 nM; in experiment [2] it was 0.23 nM. Besides, in the experiment on ICR mice, the response vs control in vivo at 5 mg/kg amounted to 184%.

Regarding `N=C(N)Nc1ccc(C(=O)Oc2ccc3c(c2)CCC(C(=O)N[C@@H](Cc2ccc(C(=O)O)cc2)C(=O)O)C3)cc1` (stereo partly drawn) [Example 35], the IC50 in experiment [1] is 0.37 nM; in experiment [2] it was 0.42 nM. The response vs control in vivo at 5 mg/kg in the experiment with ICR mice is 159%.

With `N=C(N)Nc1ccc(C(=O)Oc2ccc3c(C(=O)N(CC(=O)O)Cc4cccc(C(=O)O)c4)cccc3c2)cc1` [Example 15], the IC50 in experiment [1] was 0.1 nM; in experiment [2], 0.18 nM. For the same compound, in the experiment on ICR mice, the response vs control in vivo at 5 mg/kg stood at 261%.

Regarding `N=C(N)Nc1ccc(C(=O)Oc2ccc3c(C(=O)N(CC(=O)O)Cc4cccc(CC(=O)O)c4)cccc3c2)cc1` [Example 42], the IC50 in experiment [1] amounted to 0.2 nM; in experiment [2] it was 0.14 nM. Also, in the experiment with ICR mice, the response vs control in vivo at 5 mg/kg came to 204%.

On to `N=C(N)Nc1ccc(C(=O)Oc2ccc3cc(C(=O)N(CC(=O)O)Cc4cccc(C(=O)O)c4)ccc3c2)cc1` [Example 14], for which the results for the 50% inhibitory concentration (IC50) in experiment [1] and in experiment [2] were 0.23 nM and 0.26 nM, respectively. In addition, in the experiment with ICR mice, the response vs control in vivo at 5 mg/kg is 179%.

Regarding `N=C(N)Nc1ccc(C(=O)Oc2ccc3c(c2)CCC3CC(=O)N[C@@H](Cc2ccc(C(=O)O)cc2)C(=O)O)cc1` (stereo partly drawn) [Example 53], the IC50 in experiment [1] is 0.54 nM; in experiment [2], 0.6 nM. The response vs control in vivo at 5 mg/kg with ICR mice is 164%.

As for `C[C@H](C(=O)O)N(Cc1csc(C(=O)O)c1)C(=O)c1cccc2cc(OC(=O)c3ccc(NC(=N)N)cc3)ccc12` [Example 18], the IC50 in experiment [1] was found to be 0.29 nM; in experiment [2], 0.48 nM. The response vs control in vivo at 5 mg/kg in the experiment with ICR mice worked out at 218%.

For the compound `N=C(N)Nc1ccc(C(=O)Oc2ccc3cc(C(=O)N(CC(=O)O)Cc4ccc(CC(=O)O)cc4)ccc3c2)cc1` [Example 16], the concentration for half-maximal inhibition (IC50) in experiment [1] was 0.14 nM; in experiment [2] it was 0.24 nM. In the experiment with ICR mice, the response vs control in vivo at 5 mg/kg came to 239%.

Take `N=C(N)Nc1ccc(C(=O)Oc2ccc3c(c2)CCCC3CC(=O)N(CC(=O)O)Cc2csc(CC(=O)O)c2)cc1` (stereo not drawn) [Example 38]: the half-inhibitory concentration (IC50) in experiment [1] is 0.26 nM; in experiment [2] it was 0.23 nM. The response vs control in vivo at 5 mg/kg with ICR mice was 191%.

For the compound `N=C(N)Nc1ccc(C(=O)Oc2ccc3c(C(=O)N(CCC(=O)O)Cc4csc(C(=O)O)c4)cccc3c2)cc1` [Example 43], the IC50 worked out at 0.17 nM in experiment [1] and 0.19 nM in experiment [2]. Further, the response vs control in vivo at 5 mg/kg in the experiment with ICR mice was determined as 198%.

For the compound `N=C(N)Nc1ccc(C(=O)Oc2ccc3c(c2)CCC(C(=O)N(CC(=O)O)Cc2cccc(C(=O)O)c2)C3)cc1` (stereo not drawn) [Example 58], the results for the half-inhibitory concentration (IC50) in experiment [1] and in experiment [2] were 0.68 nM and 0.74 nM, respectively. Further, the response vs control in vivo at 5 mg/kg with ICR mice turned out to be 218%.

In the case of `N=C(N)Nc1ccc(C(=O)Oc2ccc3c(c2)CCCC3CC(=O)N(CC(=O)O)Cc2cccc(C(=O)O)c2)cc1` (single isomer, unassigned) [Example 5, 3-{[({(1R)-6-[(4-carbamimidamidobenzoyl)oxy]-1,2,3,4-tetrahydronaphthalen-1-yl}acetyl)(carboxymethyl)amino]methyl}benzoic acid or an enantiomer thereof], the results for the IC50 in experiment [1] and in experiment [2] were 0.19 nM and 0.27 nM, respectively. The response vs control in vivo at 5 mg/kg in the experiment on ICR mice was 188%.

Take `N=C(N)Nc1ccc(C(=O)Oc2ccc3cc(C(=O)N(CC(=O)O)Cc4csc(C(=O)O)c4)sc3c2)cc1` [Example 59]: the results for the IC50 in experiment [1] and in experiment [2] were 0.71 nM and 0.87 nM, respectively. Besides, the response vs control in vivo at 5 mg/kg in the experiment on ICR mice worked out at 164%.

For the compound `N=C(N)Nc1ccc(C(=O)Oc2ccc3c(c2)CCC3CC(=O)N(CC(=O)O)Cc2ccc(CC(=O)O)cc2)cc1` (stereo not drawn) [Example 52], the IC50 in experiment [1] is 0.43 nM; in experiment [2], 0.55 nM. Also, the response vs control in vivo at 5 mg/kg in the experiment on ICR mice came to 178%.

As to `N=C(N)Nc1ccc(C(=O)Oc2ccc3c(C(=O)N(CC(=O)O)[C@@H](Cc4ccccc4)C(=O)O)cccc3c2)cc1` [Example 40], the IC50 is 0.29 nM in experiment [1] and 0.27 nM in experiment [2]. Further, in the experiment with ICR mice, the response vs control in vivo at 5 mg/kg was found to be 189%.

With `N=C(N)Nc1ccc(C(=O)Oc2ccc3c(c2)CCCC3CC(=O)N(CCc2ccc(C(=O)O)cc2)CC(=O)O)cc1` (stereo not drawn) [Example 28], the results for the IC50 in experiment [1] and in experiment [2] were 0.38 nM and 0.4 nM, respectively. Moreover, the response vs control in vivo at 5 mg/kg in the experiment with ICR mice was 154%.
